The values below come from US8455525B2, “Selective androgen receptor modulators” (Radius Health, Inc., priority 2008, dated 2013).

Each structure is given as a SMILES string. Like-named read-outs stand apart in the source and are kept apart here.

In this assay the target is T1, androgen receptor (AR) (Rattus norvegicus, UniProt P15207).
T1 construct: purchased Invitrogen, Madison, Wis
T1 sequence (P15207 651-902 limits assumed): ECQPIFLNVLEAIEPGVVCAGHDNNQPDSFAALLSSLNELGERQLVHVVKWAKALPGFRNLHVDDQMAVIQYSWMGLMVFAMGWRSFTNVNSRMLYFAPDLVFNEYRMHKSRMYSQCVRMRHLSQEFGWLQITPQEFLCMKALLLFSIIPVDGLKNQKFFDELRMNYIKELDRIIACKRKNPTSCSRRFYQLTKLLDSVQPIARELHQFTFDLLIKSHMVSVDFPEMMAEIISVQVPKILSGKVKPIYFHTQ
The assay is described as follows: androgen receptor binding assay (fluorescence polarization, Fluormone AL Green competition). As to the method:
The assay was performed as specified by the manufacturer (Invitrogen, Madison, Wis.). Briefly, 1 μl of 10 mM compound was added to 500 μl of AR screening buffer in a 1.5 ml eppendorf tube to make a 2×10^−5M stock. 10-fold serial dilutions of the test compounds were prepared ranging in concentration from 10^−5M to 10^−12M. Each dilution was added in triplicate to a black 384-microtiter plate. The test compounds will be diluted 2-fold in the final reaction. 2×AR-Fluormone™ complex was prepared with 2 nM Flourmone AL Green™ and 30 nM AR. 25 μl of 2× complex was aliquoted to each reaction well, such that the final reaction volume was 50 μl per well. Plate was sealed with a foil cover and incubated in the dark at room temperature for 4 h. Polarization values for each well were measured. The polarization values were plotted against the concentration of the test compound. […] As a control, a competition curve for R1881 (methyltrienolone) was performed for each assay. Curve Fitting was performed using GraphPad Prism® software from GraphPad™ Software Inc. Binding data are reported as a single determination if the experiment was run once only and as the average of experiments if the binding experiment was performed two or more times with that compound.
Where multiple data points have been taken, the value reported is the average of the multiple determinations.
(In general: In fluorescence polarisation assays a small probe gives low polarisation when free and higher when bound to something large.)

Setting [1] is: single determination or average of multiple determinations, read-out: Binding IC50 (AR-Binding Affinity).

As usually defined, the IC50 is the point on the concentration scale where inhibition reaches its midpoint.

Turning to `Cc1c(NC(c2nnc(-c3ccccc3)o2)C(O)c2ccccc2)ccc(C#N)c1Cl` (racemic) [Example 38, DL-Threo-2-chloro-4-(2-hydroxy-2-phenyl-1-(5-phenyl-1,3,4-oxadiazol-2-yl)ethylamino)-3-methylbenzonitrile], the IC50 was 60 nM. For the compound `COc1ccc(-c2nnc([C@H](Nc3ccc(C#N)c(Cl)c3C)[C@H](C)O)o2)cc1` [Example 2, 2-chloro-4-((1R,2S)-2-hydroxy-1-(5-(4-methoxyphenyl)-1,3,4-oxadiazol-2-yl)propylamino)-3-methylbenzonitrile], the IC50 was 5 nM. The same measure, in the same setting: with `Cc1c(N[C@@H](c2nnc(-c3ccc(Cl)cc3)o2)[C@H](C)O)ccc(C#N)c1Cl` [Example 4, 2-chloro-4-((1R,2S)-1-(5-(4-chlorophenyl)-1,3,4-oxadiazol-2-yl)-2-hydroxypropylamino)-3-methylbenzonitrile] the figure was 11 nM.

With `Cc1c(N[C@@H](c2nnc(-c3ccc(F)cc3)o2)[C@H](C)O)ccc(C#N)c1Cl` [Example 5, 2-Chloro-4-((1R,2S)-1-(5-(4-fluorophenyl)-1,3,4-oxadiazol-2-yl)-2-hydroxypropylamino)-3-methylbenzonitrile], the concentration for half-maximal inhibition (IC50) came to 50 nM. Still for that read-out and setting: under `COc1cccc(-c2nnc([C@H](Nc3ccc(C#N)c(Cl)c3C)[C@H](C)O)o2)c1` [Example 6, 2-chloro-4-((1R,2S)-2-hydroxy-1-(5-(3-methoxyphenyl)-1,3,4-oxadiazol-2-yl)propylamino)-3-methylbenzonitrile] stands 16 nM; under `Cc1c(N[C@@H](c2nnc(-c3cccc(O)c3)o2)[C@H](C)O)ccc(C#N)c1Cl` [Example 7, 2-chloro-4-((1R,2S)-2-hydroxy-1-(5-(3-hydroxyphenyl)-1,3,4-oxadiazol-2-yl)propylamino)-3-methylbenzonitrile], 0.4 nM; under `Cc1c(N[C@@H](c2nnc(-c3ccc(O)cc3)o2)[C@H](C)O)ccc(C#N)c1Cl` [Example 8, 2-chloro-4-((1R,2S)-2-hydroxy-1-(5-(4-hydroxyphenyl)-1,3,4-oxadiazol-2-yl)propylamino)-3-methylbenzonitrile], 15 nM. Still for that read-out and setting: under `Cc1c(N[C@@H](c2nnc(-c3cccc(O)c3)o2)[C@@H](C)O)ccc(C#N)c1Cl` [Example 9, 2-chloro-4-((1R,2R)-2-hydroxy-1-(5-(3-hydroxyphenyl)-1,3,4-oxadiazol-2-yl)propylamino)-3-methylbenzonitrile] stands 10 nM.

In the case of `Cc1c(N[C@@H](c2nnc(-c3ccc(O)cc3)o2)[C@@H](C)O)ccc(C#N)c1Cl` [Example 10, 2-chloro-4-((1R,2R)-2-hydroxy-1-(5-(4-hydroxyphenyl)-1,3,4-oxadiazol-2-yl)propylamino)-3-methylbenzonitrile], the IC50 came out at 15 nM. As for `CCc1c(N[C@@H](c2nnc(-c3ccccc3)o2)[C@H](C)O)ccc(C#N)c1Cl` [Example 11, 2-chloro-3-ethyl-4-((1R,2S)-2-hydroxy-1-(5-phenyl-1,3,4-oxadiazol-2-yl)propylamino)benzonitrile], the half-maximal inhibitory concentration (IC50) is 12 nM. Consider `C[C@H](O)[C@@H](Nc1ccc(C#N)c(Cl)c1)c1nnc(-c2ccccc2)o1` [Example 12, 2-chloro-4-((1R,2S)-2-hydroxy-1-(5-phenyl-1,3,4-oxadiazol-2-yl)propylamino)benzonitrile], for which the half-inhibitory concentration (IC50) under setting [1] stood at 300 nM. In the case of `C[C@H](O)[C@@H](Nc1ccc(C#N)c2ccccc12)c1nnc(-c2ccccc2)o1` [Example 13, 4-((1R,2S)-2-hydroxy-1-(5-phenyl-1,3,4-oxadiazol-2-yl)propylamino)-1-naphthonitrile], the concentration for half-maximal inhibition (IC50) turned out to be 5 nM. Regarding `Cc1c(N[C@@H](c2nnc(-c3ccccc3)o2)C(C)(C)O)ccc(C#N)c1Cl` [Example 14, (R)-2-chloro-4-(2-hydroxy-2-methyl-1-(5-phenyl-1,3,4-oxadiazol-2-yl)propylamino)-3-methylbenzonitrile], the half-maximal inhibitory concentration (IC50) under setting [1] worked out at 17 nM. As to `Cc1c(N[C@@H](c2nnc(-c3ccc(Cl)cc3)o2)C(C)(C)O)ccc(C#N)c1Cl` [Example 15, (R)-2-chloro-4-(1-(5-(4-chlorophenyl)-1,3,4-oxadiazol-2-yl)-2-hydroxy-2-methylpropylamino)-3-methylbenzonitrile], the IC50 is 0.5 nM. Still for that read-out and setting: under `C[C@H](O)[C@@H](Nc1ccc(C#N)c(C(F)(F)F)c1)c1nnc(-c2ccccc2)o1` [Example 16, 4-((1R,2S)-2-hydroxy-1-(5-phenyl-1,3,4-oxadiazol-2-yl)propylamino)-2-(trifluoromethyl)benzonitrile] stands 35 nM; under `Cc1c(N[C@H](CO)c2nnc(-c3ccccc3)o2)ccc(C#N)c1Cl` [Example 17, (R)-2-chloro-4-(2-hydroxy-1-(5-phenyl-1,3,4-oxadiazol-2-yl)ethylamino)-3-methylbenzonitrile], 10 nM. The compound `Cc1c(N[C@@H](c2nc(-c3ccccc3)no2)[C@@H](C)O)ccc(C#N)c1Cl` [Example 18, 2-chloro-4-((1R,2R)-2-hydroxy-1-(3-phenyl-1,2,4-oxadiazol-5-yl)propylamino)-3-methylbenzonitrile] yielded a half-inhibitory concentration (IC50) of 60 nM. The same measure, in the same setting: under `Cc1c(N[C@@H](c2nnc(-c3ccc(F)cc3)o2)[C@@H](C)O)ccc(C#N)c1Cl` [Example 19, 2-chloro-4-((1R,2R)-1-(5-(4-fluorophenyl)-1,3,4-oxadiazol-2-yl)-2-hydroxypropylamino)-3-methylbenzonitrile] stands 19 nM. On the same count and under the same terms, under `Cc1c(N[C@@H](c2nnc(-c3ccc(Cl)cc3)o2)[C@@H](C)O)ccc(C#N)c1Cl` [Example 20, 2-Chloro-4-((1R,2R)-1-(5-(4-chlorophenyl)-1,3,4-oxadiazol-2-yl)-2-hydroxypropylamino)-3-methylbenzonitrile] stands 15 nM; under `Cc1c(N[C@@H](c2nnc(-c3cccc(Cl)c3)o2)[C@H](C)O)ccc(C#N)c1Cl` [Example 21, 2-chloro-4-((1R,2S)-1-(5-(3-chlorophenyl)-1,3,4-oxadiazol-2-yl)-2-hydroxypropylamino)-3-methylbenzonitrile], 3 nM.

The compound `Cc1c(N[C@@H](c2nnc(-c3ccc(C#N)cc3)o2)[C@H](C)O)ccc(C#N)c1Cl` [Example 22, 2-chloro-4-((1R,2S)-1-(5-(4-cyanophenyl)-1,3,4-oxadiazol-2-yl)-2-hydroxypropylamino)-3-methylbenzonitrile] yielded an IC50 of 2 nM. On the same count and under the same terms, under `Cc1c(N[C@@H](c2nnc(-c3ccc(C#N)cc3)o2)[C@@H](C)O)ccc(C#N)c1Cl` [Example 23, 2-chloro-4-((1R,2R)-1-(5-(4-cyanophenyl)-1,3,4-oxadiazol-2-yl)-2-hydroxypropylamino)-3-methylbenzonitrile] stands 0.7 nM; under `Cc1c(N[C@@H](c2nnc(-c3ccc(S(C)(=O)=O)cc3)o2)[C@H](C)O)ccc(C#N)c1Cl` [Example 24, 2-chloro-4-((1R,2S)-2-hydroxy-1-(5-(4-(methylsulfonyl)phenyl)-1,3,4-oxadiazol-2-yl)propylamino)-3-methylbenzonitrile], 200 nM; under `Cc1c(N[C@@H](c2nnc(-c3ccc(S(C)(=O)=O)cc3)o2)[C@@H](C)O)ccc(C#N)c1Cl` [Example 25, 2-chloro-4-((1R,2R)-2-hydroxy-1-(5-(4-(methylsulfonyl)phenyl)-1,3,4-oxadiazol-2-yl)propylamino)-3-methylbenzonitrile], 258 nM. Still for that read-out and setting: under `Cc1c(N[C@@H](c2nnc(-c3ccccc3)s2)[C@@H](C)O)ccc(C#N)c1Cl` [Example 26, 2-chloro-4-((1R,2R)-2-hydroxy-1-(5-phenyl-1,3,4-thiadiazol-2-yl)propylamino)-3-methylbenzonitrile] stands 10 nM. Turning to `Cc1c(N[C@@H](c2nnc(-c3ccccc3)s2)[C@H](C)O)ccc(C#N)c1Cl` [Example 27, 2-chloro-4-((1R,2S)-2-hydroxy-1-(5-phenyl-1,3,4-thiadiazol-2-yl)propylamino)-3-methylbenzonitrile], the IC50 was 10 nM. In turn, `Cc1c(N[C@@H](c2nnc(-c3ccc(F)cc3)s2)[C@@H](C)O)ccc(C#N)c1Cl` [Example 28, 2-chloro-4-((1R,2R)-1-(5-(4-fluorophenyl)-1,3,4-thiadiazol-2-yl)-2-hydroxypropylamino)-3-methylbenzonitrile] displayed a concentration for half-maximal inhibition (IC50) of 16 nM. Same read-out and setting: under `Cc1c(N[C@@H](c2nnc(-c3ccc(O)c(F)c3)o2)[C@H](C)O)ccc(C#N)c1Cl` [Example 29, 2-chloro-4-((1R,2S)-1-(5-(3-fluoro-4-hydroxyphenyl)-1,3,4-oxadiazol-2-yl)-2-hydroxypropylamino)-3-methylbenzonitrile] stands 0.03 nM.

For the compound `Cc1c(N[C@@H](c2nnc(-c3ccc(O)c(Cl)c3)o2)[C@@H](C)O)ccc(C#N)c1Cl` [Example 30, 2-Chloro-4-((1R,2R)-1-(5-(3-chloro-4-hydroxyphenyl)-1,3,4-oxadiazol-2-yl)-2-hydroxypropylamino)-3-methylbenzonitrile], the IC50 was found to be 0.3 nM.
